Source: patent US7045631B2, “Substituted 2-thio-3, 5-dicyano-4-phenyl-6-aminopyridines and their use as adenosine receptor-selective ligands” (Bayer Aktiengesellschaft, priority 2001, dated 2006)

Tests used:
[1] = molecular target: T1, adenosine A2b receptors (Homo sapiens, UniProt P29275); experiment: Adenosine agonism indirectly by way of gene expression (luciferase test), A2b cells; assay type: cell-based; conditions: percent of the maximum stimulation achieved by NECA
T1 construct: expressed in transfected cells; host or cells: CHO (Chinese Hamster Ovary)
T1 sequence (P29275 1-332): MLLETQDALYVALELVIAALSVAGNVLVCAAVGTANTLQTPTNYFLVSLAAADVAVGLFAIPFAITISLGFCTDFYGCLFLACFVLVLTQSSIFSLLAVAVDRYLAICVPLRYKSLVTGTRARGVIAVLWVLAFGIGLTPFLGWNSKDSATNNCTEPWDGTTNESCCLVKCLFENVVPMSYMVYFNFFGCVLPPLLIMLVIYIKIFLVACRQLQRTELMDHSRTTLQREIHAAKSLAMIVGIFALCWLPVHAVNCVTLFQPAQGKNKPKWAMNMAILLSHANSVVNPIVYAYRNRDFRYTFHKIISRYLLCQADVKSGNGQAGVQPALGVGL
From the text: (§1) Cells of the CHO (Chinese Hamster Ovary) permanent cell line are transfected stably with the cDNA for the adenosine receptor subtypes A1, A2a and A2b. The adenosine A1 receptors are coupled to the adenylate cyclase by way of Gi proteins, while the adenosine A2a and A2b receptors are coupled by way of Gs proteins. In correspondence with this, the formation of cAMP in the cell is inhibited or stimulated, respectively. After that, expression of the luciferase is modulated by way of a cAMP-dependent promoter. The luciferase test is optimized, with the aim of high sensitivity and reproducibility, low variance and good suitability for implementation on a robot system, by varying several test parameters, such as cell density, duration of the growth phase and the test incubation, forskolin concentration and medium composition. The following test protocol is used for pharmacologically characterizing cells and for the robot-assisted substance test screening:
(§2) The stock cultures are grown, at 37° C. and under 5% CO2, in DMEM/F12 medium containing 10% FCS (foetal calf serum) and in each case split 1:10 after 2–3 days. The test cultures are seeded in 384-well plates at the rate of from 1 000 to 3 000 cells per well and grown at 37° C. for approx. 48 hours. […] After that, 35 μl of a solution which is composed of 50% lysis reagent (30 mM disodium hydrogenphosphate, 10% glycerol, 3% TritonX100, 25 mM TrisHCl, 2 mM dithiothreitol (DTT), pH 7.8) and 50% luciferase substrate solution (2.5 mM ATP, 0.5 mM luciferin, 0.1 mM coenzyme A, 10 mM tricine, 1.35 mM magnesium sulphate, 15 mM DTT, pH 7.8) are added to the test cultures, the plates are shaken for approx. 1 minute and the luciferase activity is measured using a camera system.
(§3) The table gives the % values of the corresponding reference stimulus. The measured values for the A2a and A2b receptors are values in percent of the maximum stimulation achieved by NECA; the measured values for the A1 receptor are values in percent following direct prestimulation of the adenylate cyclase with 1μ molar forskolin (corresponds to the 100% value).

[2] = molecular target: T2, adenosine A1 receptors (Homo sapiens, UniProt P30542); experiment: Adenosine agonism indirectly by way of gene expression (luciferase test), A1 cells; assay type: cell-based; conditions: percent following prestimulation of adenylate cyclase with 1 μ molar forskolin (=100%), agonists give <100%
T2 construct: expressed in transfected cells; host or cells: CHO (Chinese Hamster Ovary)
T2 sequence (P30542 1-326): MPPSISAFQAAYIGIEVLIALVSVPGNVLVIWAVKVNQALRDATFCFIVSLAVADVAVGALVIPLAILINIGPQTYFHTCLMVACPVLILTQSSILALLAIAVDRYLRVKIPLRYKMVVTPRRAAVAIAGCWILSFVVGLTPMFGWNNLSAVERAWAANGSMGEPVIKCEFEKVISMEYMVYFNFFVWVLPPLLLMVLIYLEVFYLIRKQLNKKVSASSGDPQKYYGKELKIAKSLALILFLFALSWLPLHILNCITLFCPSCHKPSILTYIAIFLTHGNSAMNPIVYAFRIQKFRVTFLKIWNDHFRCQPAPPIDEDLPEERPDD
From the text: as §1, §2, §3

[3] = Pharmacokinetic investigations, mouse; assay type: in vivo, mice; conditions: plasma, po, 1 mg/kg p.o., read-out: Bioavailability following oral administration
Description: (§4) Pharmacokinetic data were determined after administering various substances i.v. or p.o. as solutions to mice, rats and dogs. For this, blood samples were collected up to 24 hours after administration. The concentrations of the unaltered substance were determined by bioanalytical methods (HPLC or HPLC-MS) in the plasma samples which were obtained from the blood samples. Pharmacokinetic parameters were subsequently ascertained from the plasma concentration time courses which had been obtained in this way. The following Table 2 gives the bioavailability in the different species.

[4] = Pharmacokinetic investigations, dog; assay type: in vivo, dogs; conditions: plasma, po, 1 mg/kg p.o., read-out: Bioavailability following oral administration
Description: as §4

[5] = molecular target: T3, adenosine A2a receptors (Homo sapiens, UniProt P29274); experiment: Adenosine agonism indirectly by way of gene expression (luciferase test), A2a cells; assay type: cell-based; conditions: percent of the maximum stimulation achieved by NECA
T3 construct: expressed in transfected cells; host or cells: CHO (Chinese Hamster Ovary)
T3 sequence (P29274 whole entry): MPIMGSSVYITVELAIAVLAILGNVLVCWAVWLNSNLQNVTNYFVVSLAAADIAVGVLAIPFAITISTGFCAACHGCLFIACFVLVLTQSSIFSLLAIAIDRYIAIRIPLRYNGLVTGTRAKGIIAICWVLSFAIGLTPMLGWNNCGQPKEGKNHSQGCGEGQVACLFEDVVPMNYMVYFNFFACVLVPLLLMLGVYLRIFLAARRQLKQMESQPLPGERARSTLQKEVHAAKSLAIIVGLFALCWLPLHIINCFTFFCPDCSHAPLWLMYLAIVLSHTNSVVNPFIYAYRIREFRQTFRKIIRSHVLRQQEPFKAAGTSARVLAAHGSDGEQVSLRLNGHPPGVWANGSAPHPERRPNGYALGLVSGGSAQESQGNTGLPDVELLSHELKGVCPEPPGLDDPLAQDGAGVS
From the text: as §1, §2, §3

[6] = Pharmacokinetic investigations, rat; assay type: in vivo, rats; conditions: plasma, po, 1 mg/kg p.o., read-out: Bioavailability following oral administration
Description: as §4

Stimulation of adenosine receptors, A2b, % of the reference stimulus ([1]; 0.3 nmol compound): 29% | Stimulation of adenosine receptors, A2b, % of the reference stimulus ([1]; 1 nmol compound): 64% | Stimulation of adenosine receptors, A2b, % of the reference stimulus ([1]; 10 nmol compound): 88% | Stimulation of adenosine receptors, A1, % of the reference stimulus ([2]; 0.3 nmol compound): 44% | Stimulation of adenosine receptors, A1, % of the reference stimulus ([2]; 1 nmol compound): 9% | Stimulation of adenosine receptors, A1, % of the reference stimulus ([2]; 10 nmol compound): 5% | bioavailability [3]: 22.1% | bioavailability [4]: 48.2% | Stimulation of adenosine receptors, A2a, % of the reference stimulus ([5]; 0.3 nmol compound): 1% | Stimulation of adenosine receptors, A2a, % of the reference stimulus ([5]; 1 nmol compound): 24% | Stimulation of adenosine receptors, A2a, % of the reference stimulus ([5]; 10 nmol compound): 57% | bioavailability [6]: 4.6%
SMILES: CC(=O)Nc1ccc(-c2c(C#N)c(N)nc(SCc3ccccn3)c2C#N)cc1 [Example 1, N-(4-{2-Amino-3,5-dicyano-6-[(2-pyridinylmethyl)sulphanyl]-4-pyridinyl}-phenyl)acetamide]
